According to patent US20070037785A1, “Novel dipeptidyl peptidase IV inhibitors used for functionally influencing different cells and treating immunological, infammatory, neuronal, and other diseases” (priority 2003, published 2007):
pIC50: −log10 of the molar value.

Molecular target: dipeptidyl peptidase IV (Homo sapiens, UniProt P27487)
Assay: biochemical
Conditions: values marked with "*" are ID50 values; read-out: IC50DPIV, values marked with "*" = ID50

Chain of dipeptidyl peptidase IV (P27487 whole entry, species assumed): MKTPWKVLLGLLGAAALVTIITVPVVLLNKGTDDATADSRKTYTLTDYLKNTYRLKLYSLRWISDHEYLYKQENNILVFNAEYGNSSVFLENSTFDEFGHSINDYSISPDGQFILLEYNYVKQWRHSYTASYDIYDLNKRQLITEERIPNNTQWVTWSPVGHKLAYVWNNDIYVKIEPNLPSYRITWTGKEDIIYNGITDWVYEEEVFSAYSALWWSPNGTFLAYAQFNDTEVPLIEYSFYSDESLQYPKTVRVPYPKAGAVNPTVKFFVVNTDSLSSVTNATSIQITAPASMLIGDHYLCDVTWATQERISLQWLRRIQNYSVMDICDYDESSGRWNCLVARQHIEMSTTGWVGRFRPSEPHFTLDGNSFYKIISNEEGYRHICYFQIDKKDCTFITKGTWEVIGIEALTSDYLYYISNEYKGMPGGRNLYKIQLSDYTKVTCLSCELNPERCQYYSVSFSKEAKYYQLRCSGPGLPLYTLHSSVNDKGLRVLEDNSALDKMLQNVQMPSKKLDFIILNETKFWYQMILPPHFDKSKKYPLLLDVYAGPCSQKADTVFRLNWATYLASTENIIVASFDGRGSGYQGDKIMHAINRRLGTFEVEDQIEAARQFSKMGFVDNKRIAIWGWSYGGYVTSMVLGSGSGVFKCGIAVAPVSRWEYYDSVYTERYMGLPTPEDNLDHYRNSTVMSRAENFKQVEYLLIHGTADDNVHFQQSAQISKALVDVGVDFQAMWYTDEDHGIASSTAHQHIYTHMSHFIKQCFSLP

Structure (SMILES) | pIC50
O=C1c2sc3nnc(-c4ccccc4)c(=O)n3c2C(=O)N1c1ccccc1 [D3.114] | 3.48
Cc1cc(Cl)ccc1OC(C)C(=O)N/N=C1/C(=O)Nc2ccc([N+](=O)[O-])cc21 (centres unmarked) [D10.118] | 3.78
Cc1ccc(C)c(NCC(=O)N/N=C\c2cc([N+](=O)[O-])ccc2N2CCOCC2)c1 [D10.125] | 3.63
Cc1ccc(N2C(=O)C3CC(c4ccccc4)=C4C5C=CC(C6C(=O)N(c7ccc(C)cc7C)C(=O)C56)C4C3C2=O)c(C)c1 (centres unmarked) [D3.119] | 3.28
Cc1cccc(NCC(=O)N/N=C/c2cc(Br)c(O)c(O)c2Br)c1 [D10.094] | 4.18
O=C(CC1(O)OC(c2ccccc2)=CC1=O)c1ccccc1 (centres unmarked) [D6.122] | 3.60
O=C(Nc1cccc(/N=C/c2cc(/N=N\c3ccccc3Cl)ccc2O)c1)c1ccco1 [D14.002] | 5.60
CCOC(=O)n1ccc(C(=O)Nc2ccccn2)n1 [D2.007] | 3.83
COc1cc(/C=N/NC(=O)c2cc(O)c(O)c(O)c2)cc(Br)c1OCc1ccccc1Cl [D10.002] | 5.70
CCOC(=O)c1c(NC(=O)CSc2nc(=O)cc(N)n2-c2cccc(C)c2)sc2c1CCC2 [D3.116] | 3.44
Oc1ccc(-c2csc(Nc3ncccn3)n2)cc1O [D4.095] | 3.79
CC(=O)Oc1ccc(-n2c(=O)c3ccccc3c3ccccc3c2=O)cc1 [D3.107] | 3.57
N#C/C(=C\c1ccc(-c2ccc(Cl)cc2)o1)C(=O)Nc1cccc([N+](=O)[O-])c1 [D4.114] | 3.40
COc1ccc(S(=O)(=O)N(CC(=O)N/N=C/c2ccc(C(C)C)cc2)c2cc(Cl)ccc2OC)cc1OC [D10.139] | 3.36
Cc1ccc(-n2c(SCC(=O)c3ccccc3)nc3sc4c(c3c2=O)CC(C(C)C)OC4)cc1 (centres unmarked) [D3.102] | 3.68
CCOc1cccc(/C=N\NC(=O)c2ccco2)c1O [D10.107] | 3.99
CCCN(CCC)c1ccc(/C=N/NC(=O)COc2ccc(C)cc2[N+](=O)[O-])cc1 [D10.124] | 3.65

Same assay, conditions: values without "*" = IC-50; read-out: IC50DPIV

Structure (SMILES) | pIC50
O=C(Cn1c2ccccc2c(=O)c2ccccc21)NN=Cc1cc(Br)c(O)c(Br)c1 [D10.018] | 4.91
CCOC(=O)CN(Cc1ccccc1)c1ccc(N2C(=O)CCCC2=O)cc1[N+](=O)[O-] [D4.017] | 4.87
CCSc1nnc2n(-c3ccc(OC)cc3)c(=O)c3c4c(sc3n12)CCCC4 [D6.031] | 4.69
O=C(N/N=C/c1cc([N+](=O)[O-])ccc1O)c1cccc2cc[nH]c12 [D10.009] | 5.09
CC(C)(C)S(=O)(=O)C1=CN2C3=C(CCCC3)NC2C=C1 (centres unmarked) [D6.020] | 4.81
CN(C)c1ccc(/C=N\NC(=O)c2cc(N)ccc2O)cc1 [D10.008] | 5.12
Cn1c(=O)n(Cc2ccccc2)c(=O)c2c1nc(N1CCNCC1)n2Cc1ccccc1 [D3.064] | 4.32
NCc1ccccc1-n1cccc1 [D4.085] | 4.03
CCCC(=O)Cc1ccc(N(C(=O)CCC)S(=O)(=O)c2cccs2)cc1 [D6.048] | 4.50
CC(=O)Oc1cccc(N2C(=O)C3C(C2=O)C2(C)C=CC3(C)O2)c1 (centres unmarked) [D4.073] | 4.18
CN(C)CCNc1nc2c(c(=O)n(C)c(=O)n2C)n1Cc1ccccc1Cl [D3.004] | 5.12
CCOc1cc(/C=N/NC(=O)c2cc(C3CC3)[nH]n2)ccc1O [D10.039] | 4.68
CC1=C(C#N)C(=O)N(CCCO)C(=O)/C1=C\c1ccc(-c2cc(C)c(C)cc2[N+](=O)[O-])o1 [D4.046] | 4.46
O=C(COc1cccc([N+](=O)[O-])c1)N/N=C/c1ccc(O)c([N+](=O)[O-])c1 [D10.044] | 4.61
O=C1NC23NC(=O)NC2(N1)c1ccccc1-c1ccccc13 (centres unmarked) [D4.053] | 4.37
O=C1NCCCCC1Nc1ccc(N2C(=O)CCCC2=O)cc1[N+](=O)[O-] (centres unmarked) [D4.044] | 4.47
CCOc1ccc(/C=N/NC(=O)c2cc(-c3c(OC)ccc4ccccc34)n[nH]2)cc1 [D6.081] | 4.25
CCCn1c(N2CCN(CC(=O)c3c[nH]c4ccccc34)CC2)nc2c1c(=O)[nH]c(=O)n2C [D12.012] | 4.51
CCC(=O)Oc1ccc(/C=N/NC(=O)c2ccccc2[N+](=O)[O-])c(OC(=O)CC)c1 [D10.005] | 5.18
COc1ccccc1C1NCC(c2ccc([N+](=O)[O-])cc2)O1 (centres unmarked) [D4.077] | 4.15
Cc1nnc(SCC(=O)OCN2C(=O)c3ccccc3C2=O)[nH]1 [D3.033] | 4.56
N#Cc1c(NC(=O)c2ccccc2)sc2c1CCCCC2 [D3.042] | 4.48
COc1cccc(/C=N/NC(=O)c2cc(-c3cccc([N+](=O)[O-])c3)n[nH]2)c1O [D10.108] | 3.96
Nc1nonc1-n1nnc(C(=O)NN=C2c3ccccc3-c3ccccc32)c1-c1ccccc1 [D3.011] | 5.00

Structure (SMILES) | pIC50
CCOC(=O)N1CCN(c2ccc(N3C(=O)CCCC3=O)cc2[N+](=O)[O-])CC1 [D4.078] | 4.15
CC1CCN(C(=O)/C(=C\c2ccco2)NC(=O)c2ccc(Cl)cc2)CC1 [D12.004] | 4.73
CCOC(=O)c1ccc(N2C(=O)CSCC2=O)cc1 [D4.015] | 4.91
Cc1ccc(/C=N/NC(=O)c2cccc(I)c2)o1 [D6.084] | 4.24
COc1cc(N2C(=O)CSCC2=O)c(Cl)cc1Cl [D4.047] | 4.45
COc1c(OC(C)=O)ccc(/C=N/NC(=O)CNc2cccc(C)c2)c1[N+](=O)[O-] [D10.019] | 4.90
CC1CCc2c(sc(NC(=O)C(C(F)(F)F)C(F)(F)F)c2C#N)C1 (centres unmarked) [D3.080] | 4.22
COc1ccc(N2CCN(c3nc4c(c(=O)[nH]c(=O)n4C)n3Cc3ccccc3)CC2)cc1 [D5.020] | 4.72
N#Cc1c(CC(=O)C(C(F)(F)F)C(F)(F)F)sc2c1CCC2 [D6.047] | 4.51
Cc1ccc(Cn2cccc2/C=N/NC(=S)Nc2ccc(C)c(C)c2)cc1 [D6.078] | 4.26
Cc1ccc(/C=N/NC(=O)c2ccc(NC(=O)c3cccc([N+](=O)[O-])c3)cc2)o1 [D10.045] | 4.54
Nc1nonc1-n1nnc(C(=O)NN=C2c3ccccc3-c3ccccc32)c1-c1ccccc1 [D13.001] | 5.00
CN(/N=C/c1sc(=O)[nH]c1Cl)c1ccccc1 [D6.049] | 4.49
CCOC(=O)CC(N)c1ccccc1Cl (centres unmarked) [D13.005] | 4.14
COc1cc(Br)cc(Br)c1OCC(=O)N/N=C/c1ccc(O)c([N+](=O)[O-])c1 [D10.050] | 4.49
COc1cc(Br)ccc1OCC(=O)N/N=C/c1cc(Br)c(O)c(O)c1Br [D10.067] | 4.35
COc1ccccc1/C=N/NC(=O)c1cccc([N+](=O)[O-])c1 [D10.017] | 4.91
C/C(=N\NC(=O)/C(=C\c1ccc(F)cc1)NC(=O)c1ccccc1)c1ccccc1O [D10.055] | 4.48
Cc1ccc(C(=O)N/C(=C\c2ccco2)C(=O)N2CCOCC2)cc1C [D5.033] | 4.33
CCC(=O)O/N=C(/C)c1cc2ccccc2oc1=O [D3.060] | 4.34
O=C1NC23NC(=O)NC2(N1)c1ccccc1-c1ccccc13 (centres unmarked) [D3.057] | 4.37
CCCCOC(=O)c1cc(-c2ccc(/C=C3/C(=O)N(CC(C)O)C(=O)C(C#N)=C3C)o2)ccc1Cl (centres unmarked) [D6.070] | 4.31
COc1ccc(N2CCN(c3nc4c(c(=O)[nH]c(=O)n4C)n3Cc3ccccc3)CC2)cc1 [D4.024] | 4.72
O=C1C(Cc2c[nH]c3ccccc23)NC(=S)N1c1ccccc1 (centres unmarked) [D3.051] | 4.40

Structure (SMILES) | pIC50
O=C(N/N=C\c1ccc(OCc2ccccc2Cl)cc1)c1ccc2c(c1)OCO2 [D10.090] | 4.21
C/C(=N\NC(=O)CSCc1ccccc1Br)c1ccc(I)cc1 [D10.022] | 4.88
COc1cc(/C=N/NC(=O)CNC(=O)c2ccc(Cl)cc2)ccc1OC(=O)c1cccc(F)c1 [D10.066] | 4.38
Cc1cccc(-n2c(=O)c3c4c(sc3n3c(CC(C)C(=O)N5CCOCC5)nnc23)COC(C(C)C)C4)c1 (centres unmarked) [D6.012] | 5.00
CCOc1ccc(/C=N/NC(=O)c2cc(-c3c(OC)ccc4ccccc34)n[nH]2)cc1 [D3.100] | 4.25
CCOC(=O)c1c(C)oc2c1c1c(c3ccccc32)OCN(C2CCS(=O)(=O)C2)C1 (centres unmarked) [D3.046] | 4.47
O=C(N/N=C/c1cc(Br)ccc1OC(=O)c1ccco1)/C(=C\c1cccs1)NC(=O)c1ccccc1 [D10.042] | 4.62
CCCn1c(N2CCN(CC(=O)c3c(C)n(C)c4ccccc34)CC2)nc2c1c(=O)[nH]c(=O)n2C [D5.023] | 4.51
O=C(Nc1cccc(/N=C/c2cc(I)cc(I)c2O)c1)c1ccco1 [D6.010] | 5.04
COC1CC2=C(CC1OC)CC(C)(C)NC2 (centres unmarked) [D4.039] | 4.54
COc1ccc(C2(N3CCCC3)Oc3ccccc3C(C#Cc3ccccc3)=C2C)cc1 (centres unmarked) [D4.071] | 4.22
COc1cc2c(cc1OC)C1(CCCC1)CN(CC#N)C2 [D3.039] | 4.50
COc1cc2c(cc1OC)C13CCN4CC5=C(C6=C7CN8CCC9%10c%11cc(OC)c(OC)cc%11N%11C(=O)CC(O6)C(C7CC89)C%11%10)OC6CC(=O)N2C1C6C5CC43 (centres unmarked) [D3.029] | 4.64
Cc1[nH]c2ccccc2c1/C=N/OC(=O)C1CC1 [D11.008] | 4.52
CCOC(=O)c1c(C)oc2c1c1c(c3ccccc32)OCN(C2CCS(=O)(=O)C2)C1 (centres unmarked) [D6.054] | 4.47
O=C1c2ccc(Oc3ccc([N+](=O)[O-])cc3[N+](=O)[O-])cc2C(=O)N1c1ccccc1 [D4.028] | 4.69
CCOc1ccc(/C=N/NC(=O)c2cc(-c3c(OC)ccc4ccccc34)n[nH]2)cc1 [D4.068] | 4.25
CCOCCCNc1ccc(N2C(=O)CCCC2=O)cc1[N+](=O)[O-] [D4.048] | 4.43
CCCn1c(N2CCN(CC(=O)c3c(C)n(C)c4ccccc34)CC2)nc2c1c(=O)[nH]c(=O)n2C [D3.027] | 4.82
O=C(Nc1c[nH]c(=O)[nH]c1=O)c1ccc2c(c1)C(=O)N(c1ccc(C(=O)c3ccccc3)cc1)C2=O [D12.016] | 4.42
O=C(N/N=C/c1ccc(OC(=O)c2ccco2)c([N+](=O)[O-])c1)/C(=C\c1cccs1)NC(=O)c1ccccc1 [D10.028] | 4.78
O=C(Oc1csc(-c2cccnc2)n1)C1CC1 [D4.061] | 4.28
COc1cc(/C=N/NC(=O)c2ccccc2OC(C)C)ccc1O [D10.087] | 4.23
CC1=C(C#N)C(=O)N(CCc2ccccc2)C(=O)/C1=C/c1ccc(-c2ccc(S(N)(=O)=O)cc2)o1 [D4.057] | 4.32
